From patent US9777003B2, “Tricyclic heterocycles as bet protein inhibitors” (Incyte Corporation, priority 2013, dated 2017)
Counter-ions that a name gives are not always drawn.

How the values were obtained:
BRD4-BD1 = BRD4-BD1 (Homo sapiens (Human), UniProt O60885); assay: BRD4 AlphaScreen assay, BRD4-BD1; assay type: binding; conditions: biotin-labeled tetra-acetylated histone H4 peptide, 75 min, room temperature, read-out: BRD4 BD-1 enzyme IC50
In short: (§1)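 Displacement of 50 nM biotinylated tetra-acetylated H4 peptide (H4Ac4) from BRD4-BD1 (3.8 nM) or BRD4-BD2 (20 nM) in HEPES pH 7.4, 100 mM NaCl, CHAPS, BSA; 75 min at room temperature. Streptavidin donor/GSH acceptor beads were added for a further 75 min in the dark; IC50 from percent control activity versus log concentration.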

BRD4-BD2 = BRD4-BD2 (Homo sapiens (Human), UniProt O60885); assay: BRD4 AlphaScreen assay, BRD4-BD2; assay type: binding; conditions: biotin-labeled tetra-acetylated histone H4 peptide, 75 min, room temperature, read-out: BRD4 BD-2 enzyme IC50
In short: as §1

Structure (SMILES) | IC50 (BRD4-BD1) | IC50 (BRD4-BD2)
Cc1nnc2ccc3c(cc(C#N)n3Cc3ccccc3)n12 [Example 227, 6-Benzyl-1-methyl-6H-pyrrolo[2,3-e][1,2,4]triazolo[4,3-a]pyridine-7-carbonitrile Trifluoroacetate Salt] | ≤ 100 nM | ≤ 100 nM
Cc1cc2c(ccc3nnc(C)n32)n1Cc1cccnc1 [Example 11, 1,7-dimethyl-6-(pyridin-3-ylmethyl)-6H-pyrrolo[2,3-e][1,2,4]triazolo[4,3-a]pyridine] | 100 to 1000 nM | 100 to 1000 nM
Cc1nnc2ccc3c(cc(C(=O)NCCN4CCOCC4)n3Cc3cccc(Cl)c3)n12 [Example 119, 6-(3-Chlorobenzyl)-1-methyl-N-(2-morpholin-4-ylethyl)-6H-pyrrolo[2,3-e][1,2,4]triazolo[4,3-a]pyridine-7-carboxamide Trifluoroacetate Salt] | ≤ 100 nM | ≤ 100 nM
CCn1cnc(-c2cc3c(ccc4nnc(C)n43)n2Cc2ccccc2)c1 [Example 80, 6-benzyl-7-(1-ethyl-1H-imidazol-4-yl)-1-methyl-6H-pyrrolo[2,3-e][1,2,4]triazolo[4,3-a]pyridine] | ≤ 100 nM | ≤ 100 nM
Cc1nnc2ccc3c(cc(C(=O)NC4CCC4)n3Cc3ccccc3)n12 [Example 85, 6-benzyl-N-cyclobutyl-1-methyl-6H-pyrrolo[2,3-e][1,2,4]triazolo[4,3-a]pyridine-7-carboxamide] | ≤ 100 nM | ≤ 100 nM
CCNC(=O)Nc1cccc(Cn2c(C)cc3c2ccc2nnc(C)n23)c1 [Example 43, N-{3-[(1,7-dimethyl-6H-pyrrolo[2,3-e][1,2,4]triazolo[4,3-a]pyridin-6-yl)methyl]phenyl}-N′-ethylurea Trifluoroacetate Salt] | 100 to 1000 nM | ≤ 100 nM
Cc1nnc2ccc3c(cc(C(=O)NCCN(C)C)n3Cc3cccc(Cl)c3)n12 [Example 115, 6-(3-Chlorobenzyl)-N-[2-(dimethylamino)ethyl]-1-methyl-6H-pyrrolo[2,3-e][1,2,4]triazolo[4,3-a]pyridine-7-carboxamide bis(trifluoroacetate) Salt] | 100 to 1000 nM | 100 to 1000 nM
Cc1nnc2ccc3c(cc(-c4ccn[nH]4)n3Cc3cccc(Cl)c3)n12 [Example 155, 6-(3-chlorobenzyl)-1-methyl-7-(1H-pyrazol-5-yl)-6H-pyrrolo[2,3-e][1,2,4]triazolo[4,3-a]pyridine bis(trifluoroacetate) Salt] | ≤ 100 nM | ≤ 100 nM
Cc1cc2c(cc(N[C@H]3C[C@H](O)C3)c3nnc(C)n32)n1Cc1ccccc1 [Example 247, trans-3-(6-Benzyl-1,7-dimethyl-6H-pyrrolo[2,3-e][1,2,4]triazolo[4,3-a]pyridin-4-ylamino)cyclobutanol] | ≤ 100 nM | ≤ 100 nM
Cc1nnc2ccc3c(cc(-c4cscn4)n3Cc3ccccc3)n12 [Example 66, 6-benzyl-1-methyl-7-(1,3-thiazol-4-yl)-6H-pyrrolo[2,3-e][1,2,4]triazolo[4,3-a]pyridine] | ≤ 100 nM | ≤ 100 nM
Cc1cc2c(ccc3nnc(C)n32)n1Cc1cccc(CO)c1 [Example 26, {3-[(1,7-dimethyl-6H-pyrrolo[2,3-e][1,2,4]triazolo[4,3-a]pyridin-6-yl)methyl]phenyl}methanol Trifluoroacetate Salt] | ≤ 100 nM | ≤ 100 nM
Cc1nnc2ccc3c(cc(-c4c[nH]cn4)n3Cc3ccccc3)n12 [Example 74, 6-benzyl-7-(1H-imidazol-4-yl)-1-methyl-6H-pyrrolo[2,3-e][1,2,4]triazolo[4,3-a]pyridine] | ≤ 100 nM | ≤ 100 nM
Cc1cc2c(ccc3nnc(C)n32)n1Cc1cccc(CN2CCC2)c1 [Example 28, 6-[3-(azetidin-1-ylmethyl)benzyl]-1,7-dimethyl-6H-pyrrolo[2,3-e][1,2,4]triazolo[4,3-a]pyridine] | ≤ 100 nM | ≤ 100 nM
Cc1nnc2ccc3c(cc(-c4ccn(CCC(=O)N(C)C)n4)n3Cc3cccc(Cl)c3)n12 [Example 103, 3-{3-[6-(3-chlorobenzyl)-1-methyl-6H-pyrrolo[2,3-e][1,2,4]triazolo[4,3-a]pyridin-7-yl]-1H-pyrazol-1-yl}-N,N-dimethylpropanamide] | ≤ 100 nM | ≤ 100 nM
Cc1cc2c(cc(NC3CCN(C)C3)c3nnc(C)n32)n1Cc1ccccc1 (racemic) [Example 145, 6-benzyl-1,7-dimethyl-N-(1-methylpyrrolidin-3-yl)-6H-pyrrolo[2,3-e][1,2,4]triazolo[4,3-a]pyridin-4-amine bis(trifluoroacetate) Salt] | ≤ 100 nM | ≤ 100 nM
Cc1nnc2ccc3c(cc(-c4ccn(CC(C)C#N)n4)n3Cc3ccccc3)n12 (racemic) [Example 88, 3-[3-(6-benzyl-1-methyl-6H-pyrrolo[2,3-e][1,2,4]triazolo[4,3-a]pyridin-7-yl)-1H-pyrazol-1-yl]-2-methylpropanenitrile Trifluoroacetate Salt] | ≤ 100 nM | ≤ 100 nM

Structure (SMILES) | IC50 (BRD4-BD1) | IC50 (BRD4-BD2)
Cc1nnc2ccc3c(cc(-c4ccn(CCN5CCOCC5)n4)n3Cc3ccccc3)n12 [Example 77, 6-benzyl-1-methyl-7-[1-(2-morpholin-4-ylethyl)-1H-pyrazol-3-yl]-6H-pyrrolo[2,3-e][1,2,4]triazolo[4,3-a]pyridine] | ≤ 100 nM | ≤ 100 nM
CCC(=O)N1CC(n2ccc(-c3cc4c(ccc5nnc(C)n54)n3Cc3cccc(Cl)c3)n2)C1 [Example 163, 6-(3-Chlorobenzyl)-1-methyl-7-[1-(1-propionylazetidin-3-yl)-1H-pyrazol-3-yl]-6H-pyrrolo[2,3-e][1,2,4]triazolo[4,3-a]pyridine Trifluoroacetate Salt] | ≤ 100 nM | ≤ 100 nM
CCNC(=O)c1cc2c(ccc3nnc(C)n32)n1Cc1cccc(C(F)(F)F)c1 [Example 137, N-Ethyl-1-methyl-6-[3-(trifluoromethyl)benzyl]-6H-pyrrolo[2,3-e][1,2,4]triazolo[4,3-a]pyridine-7-carboxamide Trifluoroacetate Salt] | ≤ 100 nM | ≤ 100 nM
Cc1nnc2ccc3c(cc(-c4ccn(CCC(N)=O)n4)n3Cc3ccccc3)n12 [Example 98, 3-[3-(6-benzyl-1-methyl-6H-pyrrolo[2,3-e][1,2,4]triazolo[4,3-a]pyridin-7-yl)-1H-pyrazol-1-yl]propanamide] | ≤ 100 nM | ≤ 100 nM
Cc1nnc2ccc3c(cc(-c4ncco4)n3Cc3cc(Cl)cc(CN4CC(C)(C)C4)c3)n12 [Example 196, 6-{3-Chloro-5-[(3,3-dimethylazetidin-1-yl)methyl]benzyl}-1-methyl-7-(1,3-oxazol-2-yl)-6H-pyrrolo[2,3-e][1,2,4]triazolo[4,3-a]pyridine bis(trifluoroacetate) Salt] | ≤ 100 nM | ≤ 100 nM
Cc1cc2c(ccc3nnc(C)n32)n1Cc1ccncc1 [Example 12, 1,7-dimethyl-6-(pyridin-4-ylmethyl)-6H-pyrrolo[2,3-e][1,2,4]triazolo[4,3-a]pyridine] | 100 to 1000 nM | 100 to 1000 nM
CCn1ccc(-c2cc3c(ccc4nnc(C)n43)n2Cc2cc(Cl)cc(CN3CCC3)c2)n1 [Example 188, 6-(3-(Azetidin-1-ylmethyl)-5-chlorobenzyl)-7-(1-ethyl-1H-pyrazol-3-yl)-1-methyl-6H-pyrrolo[2,3-e][1,2,4]triazolo[4,3-a]pyridine tris(trifluoroacetate) Salt] | ≤ 100 nM | ≤ 100 nM
Cc1nnc2ccc3c(cc(C4CCNC4)n3Cc3ccccc3)n12 (racemic) [Example 186, 6-Benzyl-1-methyl-7-pyrrolidin-3-yl-6H-pyrrolo[2,3-e][1,2,4]triazolo[4,3-a]pyridine bis(trifluoroacetate) Salt] | 1000 to 10000 nM | 100 to 1000 nM
Cc1cc2c(ccc3nnc(C)n32)n1Cc1cccc(CNCCO)c1 [Example 36, 2-({3-[(1,7-dimethyl-6H-pyrrolo[2,3-e][1,2,4]triazolo[4,3-a]pyridin-6-yl)methyl]benzyl}amino)ethanol] | ≤ 100 nM | ≤ 100 nM
Cc1cc2c(cc(NCCN(C)C)c3nnc(C)n32)n1Cc1ccccc1 [Example 246, N1-(6-Benzyl-1,7-dimethyl-6H-pyrrolo[2,3-e][1,2,4]triazolo[4,3-a]pyridin-4-yl)-N2,N2-dimethylethane-1,2-diamine] | ≤ 100 nM | ≤ 100 nM
Cc1nnc2ccc3c(cc(-c4ccn(CCC(=O)NC5CN(C)C5)n4)n3Cc3cccc(Cl)c3)n12 [Example 171, 3-{3-[6-(3-Chlorobenzyl)-1-methyl-6H-pyrrolo[2,3-e][1,2,4]triazolo[4,3-a]pyridin-7-yl]-1H-pyrazol-1-yl}-N-(1-methylazetidin-3-yl)propanamide bis(trifluoroacetate) Salt] | ≤ 100 nM | ≤ 100 nM
Cc1cc2c(cc(NC(N)=O)c3nnc(C)n32)n1Cc1cc(F)cc(F)c1 [Example 233, 1-(6-(3,5-Difluorobenzyl)-1,7-dimethyl-6H-pyrrolo[2,3-e][1,2,4]triazolo[4,3-a]pyridin-4-yl)urea] | ≤ 100 nM | ≤ 100 nM
Cc1cc2c(ccc3nnc(C)n32)n1Cc1cccc(CN2CC(O)C2)c1 [Example 27, 1-(3-((1,7-dimethyl-6H-pyrrolo[2,3-e][1,2,4]triazolo[4,3-a]pyridin-6-yl)methyl)benzyl)azetidin-3-ol bis-trifluoroacetate Salt] | ≤ 100 nM | ≤ 100 nM
Cc1nnc2ccc3c(cc(-c4nccs4)n3Cc3ccccc3)n12 [Example 67, 6-benzyl-1-methyl-7-(1,3-thiazol-2-yl)-6H-pyrrolo[2,3-e][1,2,4]triazolo[4,3-a]pyridine] | ≤ 100 nM | ≤ 100 nM
Cc1cc2c(cc(NCCCN)c3nnc(C)n32)n1Cc1ccccc1 [Example 257, N1-(6-Benzyl-1,7-dimethyl-6H-pyrrolo[2,3-e][1,2,4]triazolo[4,3-a]pyridin-4-yl)propane-1,3-diamine] | ≤ 100 nM | ≤ 100 nM
